Experimental findings from PubChem BioAssay (NCI) are described below.

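How tested: cells in 96-well plates exposed to compound for 48 hours at five concentrations. TGI: concentration producing complete growth inhibition.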

Among the test systems are KM12 colon; NCI-H23 lung; SNB-75 CNS; EKVX NSCLC; HT29 colon; CAKI-1 renal; M14 melanoma; CCRF-CEM leukemia; HS 578T breast; HOP-62 NSCLC; MDA-N.
Common to all, as to experiment: NCI-60 cell line screen, 48 h

Regarding `COc1ccc(CCNC(=S)/N=C\C2=C(O)c3ccccc3C2=O)cc1OC`, the TGI with KM12 colon, in the test with NCI-H23 lung, in the test with SNB-75 CNS, with EKVX NSCLC, in the test on HT29 colon and with CAKI-1 renal was greater than 100 µM each time. Also, the TGI with M14 melanoma was greater than 100 µM; in the test on CCRF-CEM leukemia, greater than 100 µM; with HS 578T breast it was 72.7 µM; with HOP-62 NSCLC, greater than 100 µM; with MDA-N it was greater than 100 µM.
`CCC(c1nc2ccccc2c(=O)n1NC(=O)C(C)(C)C)C1(O)CCCCC1` (stereo not given): the TGI in the test on KM12 colon, in the test with NCI-H23 lung, with SNB-75 CNS, with EKVX NSCLC, with HT29 colon and in the test on CAKI-1 renal was greater than 100 µM throughout. The TGI in the test with M14 melanoma, with CCRF-CEM leukemia, in the test with HS 578T breast, in the test with HOP-62 NSCLC and with MDA-N was greater than 100 µM in each case.
With `Cn1c2cc(Cl)ccc2c2ccc3c(c21)C(=O)C=CC3=O`, the TGI in the test on KM12 colon was greater than 100 µM; with NCI-H23 lung, 54.4 µM; in the test with SNB-75 CNS, greater than 100 µM; in the test with EKVX NSCLC, greater than 100 µM; in the test on HT29 colon, greater than 64.6 µM; in the test with CAKI-1 renal, 22.1 µM. Besides, the TGI was greater than 64 µM in the test with M14 melanoma; 31.4 µM with CCRF-CEM leukemia; greater than 100 µM in the test with HS 578T breast; greater than 100 µM in the test on HOP-62 NSCLC; 83.1 µM in the test on MDA-N.
In the case of `CC(=O)C1C(=O)C(=O)N(c2ccc([N+](=O)[O-])cc2Cl)C1=O` (stereo not given), the TGI in the test with KM12 colon, with NCI-H23 lung, with SNB-75 CNS, in the test with EKVX NSCLC, in the test with HT29 colon and in the test with CAKI-1 renal was greater than 100 µM in each case. For the same molecule, the TGI in the test on M14 melanoma, with CCRF-CEM leukemia, with HS 578T breast, with HOP-62 NSCLC and in the test with MDA-N was greater than 100 µM throughout.
Regarding `COC(=O)C(Cc1ccccc1)NC(=O)C(CCCN=C(N)N)NC(=O)OCc1ccccc1` (stereo not given), the TGI with KM12 colon, in the test on NCI-H23 lung, with SNB-75 CNS, in the test on EKVX NSCLC, in the test on HT29 colon and in the test with CAKI-1 renal was greater than 100 µM each time. In addition, the TGI in the test on M14 melanoma, in the test on CCRF-CEM leukemia, in the test with HS 578T breast, in the test with HOP-62 NSCLC and in the test with MDA-N was greater than 100 µM in each case.
As for `CC1(C)N=C(/C(C#N)=[N+](/[O-])C(=O)c2ccccc2)C(C)(C)N1O`, the TGI with KM12 colon, in the test with NCI-H23 lung, with SNB-75 CNS, with EKVX NSCLC, with HT29 colon and with CAKI-1 renal was greater than 100 µM each time. Further, the TGI with M14 melanoma, with CCRF-CEM leukemia, in the test on HS 578T breast, in the test on HOP-62 NSCLC and with MDA-N was greater than 100 µM each time.
As for `CN(C)C(=O)CO/N=C1/C(c2c(O)[nH]c3ccccc23)=Nc2ccccc21`, the TGI was greater than 100 µM in the test with KM12 colon; greater than 100 µM with NCI-H23 lung; 89.8 µM in the test with SNB-75 CNS; greater than 100 µM with EKVX NSCLC; greater than 100 µM in the test on HT29 colon; greater than 100 µM with CAKI-1 renal. In addition, the TGI with M14 melanoma, in the test on CCRF-CEM leukemia, in the test with HS 578T breast, in the test on HOP-62 NSCLC and in the test on MDA-N was greater than 100 µM each time.
In the case of `CC1(C)OCC(C2OC(=O)C(OCc3ccccc3)=C2OCc2ccccc2)O1` (stereo not given), the TGI was greater than 100 µM with KM12 colon; 92.5 µM in the test with NCI-H23 lung; greater than 100 µM with SNB-75 CNS; greater than 100 µM with EKVX NSCLC; greater than 100 µM in the test with HT29 colon; greater than 100 µM in the test on CAKI-1 renal. Also, the TGI in the test with M14 melanoma, with CCRF-CEM leukemia, in the test on HS 578T breast, in the test on HOP-62 NSCLC and in the test with MDA-N was greater than 100 µM each time.
As for `O=C(Nc1ccc(Cl)cc1)c1cc(S(=O)(=O)NC2=NC(c3ccccc3)c3cc(Cl)ccc3N2)c(SSc2cc(Cl)c(C(=O)Nc3ccc(Cl)cc3)cc2S(=O)(=O)NC2=NC(c3ccccc3)c3cc(Cl)ccc3N2)cc1Cl` (stereo not given), the TGI in the test on KM12 colon, with NCI-H23 lung, in the test on SNB-75 CNS, with EKVX NSCLC, in the test on HT29 colon and with CAKI-1 renal was greater than 100 µM each time. In addition, the TGI in the test with M14 melanoma is greater than 100 µM; in the test on CCRF-CEM leukemia, greater than 40.1 µM; in the test with HS 578T breast, greater than 100 µM; with HOP-62 NSCLC, greater than 100 µM; in the test on MDA-N, greater than 100 µM.
Consider `OC(C1CCCC1=N/N=C1/CCCC1C(O)(C(F)(F)Cl)C(F)(F)Cl)(C(F)(F)Cl)C(F)(F)Cl` (stereo not given), for which the TGI in the test on KM12 colon, in the test with NCI-H23 lung, with SNB-75 CNS, in the test on EKVX NSCLC, in the test with HT29 colon and in the test with CAKI-1 renal was greater than 10 µM each time. For the same molecule, the TGI in the test on M14 melanoma, in the test on CCRF-CEM leukemia, in the test with HS 578T breast, with HOP-62 NSCLC and with MDA-N was greater than 10 µM throughout.
